Entries after “also recorded” stand apart in the source; their conditions may differ.
Experiments:
AML sample = assay: In vitro treatment of an AML sample with a demethylating agent; expression level of genes SEQ ID NO: 1-24 by qRT-PCR (oxydogram); assay type: cell-based, human; conditions: AML sample of one patient treated in vitro, compared with same untreated AML sample (FIG. 8)
From the text: Three micrograms of total RNA from each sample were reverse transcribed using the SuperScript® VILO™ cDNA Synthesis kit (Invitrogen) according to the protocol of the supplier. The relative quantification of gene expression was done by real-time PCR on the LightCycler® 480 microwell plate-based cycler platform (Roche Applied Science) using Universal ProbeLibrary assays designed with the ProbeFinder software (Roche Applied Science, www.roche-applied-science.com/sis/rtper/upl/ezhome.html). Primers were purchased from Invitrogen and Universal ProbeLibrary probes from Roche Applied Science. The nucleotide sequences of the primers and probes of each target are shown in Table A. All targets were concomitantly analyzed. qRT-PCR reactions were carried out in a total volume of 10 μL on 20 ng of cDNA using LightCycler® 480 Probes Master (Roche Applied Science). The LightCycler® 480 was programmed to an initial denaturation (95° C., 10 min) following by 45 cycles of 10 sec at 95° C., 30 sec at 60° C., 1 sec at 72° C. and a final cooling step at 40° C. for 10 sec. All reactions were run in triplicate, and average values were used for quantification. Results were analyzed by the relative quantification method (ΔΔCT=ΔCTpatient−ΔCTreference) using the Cycle threshold (CT) values determined with the LightCycler® 480 software (release 1.5.0) from Roche Applied Science. […]

AML and high grade MDS = conditions: background statement; cited from earlier work

Structure (SMILES)	modulation of the expression level (ratio) of the genes SEQ ID NO: 1-24 (AML sample)	share of AML and high grade MDS sensitive to the agents' effects (AML and high grade MDS)
Nc1ncn([C@@H]2O[C@H](CO)[C@@H](O)[C@H]2O)c(=O)n1 [azacytidine, 5-azacytidine]	can modulate the expression ratio of the genes SEQ ID NO: 1-24; also recorded: modify the expression level of the genes	about 30%
Nc1ncn([C@H]2C[C@H](O)[C@@H](CO)O2)c(=O)n1 [decitabine, 5-azadeoxycytidine]	–	about 30%
